Assays:
human Gal-3 (hGal-3) = human Gal-3 (hGal-3) (Homo sapiens (Human), UniProt P17931); assay: Competitive binding assay: binding of biotinylated hGal-3 to microplate-adsorbed asialofetuin (ASF); details: Activity on hGal-3; mean values of several measurements
Procedure, shortened: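 For hGal-1, a variant with all six cysteines replaced by serines is preferred. Either galectin, biotinylated at 300-1000 ng/mL, competes with compound for microplate-bound ASF over 3 h at 4° C; peroxidase/ABTS detection gives IC50, averaged.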

human Gal-1 (hGal-1) = assay: Competitive binding assay: binding of biotinylated hGal-1 to microplate-adsorbed asialofetuin (ASF); details: Activities on hGal-1; mean values of several measurements
Procedure, shortened: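 Spectrophotometric readout (streptavidin-peroxidase, ABTS) of biotinylated galectin retained on ASF-coated wells. Biotinylated hGal-1 or hGal-3, 300-1000 ng/mL, co-incubated with test compound 3 h at 4° C, then washed. Mean IC50 from repeat runs.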

Chain of human Gal-1 (hGal-1) (P09382 2-135 limits assumed): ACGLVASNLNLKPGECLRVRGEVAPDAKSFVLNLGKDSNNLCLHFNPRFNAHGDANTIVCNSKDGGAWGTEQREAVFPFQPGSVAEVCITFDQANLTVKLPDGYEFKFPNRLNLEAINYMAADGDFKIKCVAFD
Chain of human Gal-3 (hGal-3) (P17931 whole entry): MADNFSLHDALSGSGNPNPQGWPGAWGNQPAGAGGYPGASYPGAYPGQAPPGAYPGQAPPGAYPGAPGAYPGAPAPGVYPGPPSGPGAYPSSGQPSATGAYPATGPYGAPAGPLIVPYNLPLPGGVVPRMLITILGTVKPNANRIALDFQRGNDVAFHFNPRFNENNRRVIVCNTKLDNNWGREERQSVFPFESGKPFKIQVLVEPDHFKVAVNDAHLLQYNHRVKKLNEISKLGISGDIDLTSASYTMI

Row | IC50 (human Gal-3 (hGal-3)) | IC50 (human Gal-1 (hGal-1)) | Compound
1 | 220 nM | 2050 nM | CC(C)O[C@@H]1[C@@H](n2cc(-c3cc(F)c(F)c(F)c3)nn2)[C@@H](O)[C@@H](CO)O[C@@H]1Cc1cc(C2CCN(C(=O)OC(C)(C)C)CC2)on1 [Example 2.23, tert-butyl 4-(3-(((2R,3R,4S,5R,6R)-5-hydroxy-6-(hydroxymethyl)-3-isopropoxy-4-(4-(3,4,5-trifluorophenyl)-1H-1,2,3-triazol-1-yl)tetrahydro-2H-pyran-2-yl)methyl)isoxazol-5-yl)piperidine-1-carboxylate]
2 | 990 nM | 9610 nM | CC(C)O[C@@H]1[C@@H](n2cc(-c3cc(F)c(F)c(F)c3)nn2)[C@@H](O)[C@@H](CO)O[C@@H]1Cc1cc(C2CCNCC2)on1 [Example 2.24, (2R,3R,4S,5R,6R)-2-(hydroxymethyl)-5-isopropoxy-6-((5-(piperidin-4-yl)isoxazol-3-yl)methyl)-4-(4-(3,4,5-trifluorophenyl)-1H-1,2,3-triazol-1-yl)tetrahydro-2H-pyran-3-ol]
3 | 200 nM | 4490 nM | OC[C@H]1O[C@H](Cc2cc(C3CCNCC3)on2)[C@H](OCC(F)F)[C@@H](n2cc(-c3cc(F)c(F)c(F)c3)nn2)[C@H]1O [Example 2.26, (2R,3R,4S,5R,6R)-5-(2,2-difluoroethoxy)-2-(hydroxymethyl)-6-((5-(piperidin-4-yl)isoxazol-3-yl)methyl)-4-(4-(3,4,5-trifluorophenyl)-1H-1,2,3-triazol-1-yl)tetrahydro-2H-pyran-3-ol]
4 | 24 nM | 5280 nM | Cc1ccc(-c2cn([C@H]3[C@@H](O)[C@@H](CO)O[C@H](Cc4cc(C(C)(C)C)on4)[C@@H]3OCC(=O)O)nn2)c(F)c1F [Example 2.27, 2-(((2R,3R,4S,5R,6R)-2-((5-(tert-butyl)isoxazol-3-yl)methyl)-4-(4-(2,3-difluoro-4-methylphenyl)-1H-1,2,3-triazol-1-yl)-5-hydroxy-6-(hydroxymethyl)tetrahydro-2H-pyran-3-yl)oxy)acetic acid]
5 | 110 nM | 2180 nM | CC(C)(C)c1cc(C[C@H]2O[C@H](CO)[C@H](O)[C@H](n3cc(-c4cc(F)c(F)c(F)c4)nn3)[C@H]2OCC(=O)N2CCOCC2)no1 [Example 2.28, 2-(((2R,3R,4S,5R,6R)-2-((5-(tert-butyl)isoxazol-3-yl)methyl)-5-hydroxy-6-(hydroxymethyl)-4-(4-(3,4,5-trifluorophenyl)-1H-1,2,3-triazol-1-yl)tetrahydro-2H-pyran-3-yl)oxy)-1-morpholinoethan-1-one]
6 | 17 nM | 2330 nM | CO[C@@H]1[C@@H](n2cc(-c3cc(F)c(F)c(F)c3)nn2)[C@@H](O)[C@@H](CO)O[C@@H]1Cc1cc(C2CCC(NC(=O)[C@@H](NC(=O)OC(C)(C)C)C(C)C)CC2)no1 (stereo partly drawn) [Example 2.29, tert-butyl ((S)-1-(((1R,4S)-4-(5-(((2R,3R,4S,5R,6R)-5-hydroxy-6-(hydroxymethyl)-3-methoxy-4-(4-(3,4,5-trifluorophenyl)-1H-1,2,3-triazol-1-yl)tetrahydro-2H-pyran-2-yl)methyl)isoxazol-3-yl)cyclohexyl)amino)-3-methyl-1-oxobutan-2-yl)carbamate]
7 | 72 nM | 1980 nM | CO[C@@H]1[C@@H](n2cc(-c3cc(F)c(F)c(F)c3)nn2)[C@@H](O)[C@@H](CO)O[C@@H]1Cc1cc(C2CCC(NC(=O)[C@@H](N)C(C)C)CC2)no1 (stereo partly drawn) [Example 2.30, (S)-2-amino-N-((1R,4S)-4-(5-(((2R,3R,4S,5R,6R)-5-hydroxy-6-(hydroxymethyl)-3-methoxy-4-(4-(3,4,5-trifluorophenyl)-1H-1,2,3-triazol-1-yl)tetrahydro-2H-pyran-2-yl)methyl)isoxazol-3-yl)cyclohexyl)-3-methylbutanamide]
8 | 71 nM | 1740 nM | CC(C)(C)c1cc(C[C@H]2O[C@H](CO)[C@H](O)[C@H](n3cc(-c4cc(F)c(F)c(F)c4)nn3)[C@H]2OCC(=O)O)on1 [Example 2.37, 2-(((2R,3R,4S,5R,6R)-2-((3-(tert-butyl)isoxazol-5-yl)methyl)-5-hydroxy-6-(hydroxymethyl)-4-(4-(3,4,5-trifluorophenyl)-1H-1,2,3-triazol-1-yl)tetrahydro-2H-pyran-3-yl)oxy)acetic acid]
9 | 190 nM | 1990 nM | CNC(=O)CO[C@@H]1[C@@H](n2cc(-c3cc(F)c(F)c(F)c3)nn2)[C@@H](O)[C@@H](CO)O[C@@H]1Cc1cc(C(C)(C)C)on1 [Example 2.38, 2-(((2R,3R,4S,5R,6R)-2-((5-(tert-butyl)isoxazol-3-yl)methyl)-5-hydroxy-6-(hydroxymethyl)-4-(4-(3,4,5-trifluorophenyl)-1H-1,2,3-triazol-1-yl)tetrahydro-2H-pyran-3-yl)oxy)-N-methylacetamide]
10 | 110 nM | 6680 nM | CC(C)(C)c1cc(C[C@H]2O[C@H](CO)[C@H](O)[C@H](n3cc(-c4cc(F)c(F)c(F)c4)nn3)[C@H]2OCC(=O)N2CC[C@@H](O)C2)no1 [Example 2.39, 2-(((2R,3R,4S,5R,6R)-2-((5-(tert-butyl)isoxazol-3-yl)methyl)-5-hydroxy-6-(hydroxymethyl)-4-(4-(3,4,5-trifluorophenyl)-1H-1,2,3-triazol-1-yl)tetrahydro-2H-pyran-3-yl)oxy)-1-((R)-3-hydroxypyrrolidin-1-yl)ethan-1-one]
11 | 130 nM | 4580 nM | CC(C)(C)c1cc(C[C@H]2O[C@H](CO)[C@H](O)[C@H](n3cc(-c4cc(F)c(F)c(F)c4)nn3)[C@H]2OCC(=O)N2CC(O)C2)no1 [Example 2.40, 2-(((2R,3R,4S,5R,6R)-2-((5-(tert-butyl)isoxazol-3-yl)methyl)-5-hydroxy-6-(hydroxymethyl)-4-(4-(3,4,5-trifluorophenyl)-1H-1,2,3-triazol-1-yl)tetrahydro-2H-pyran-3-yl)oxy)-1-(3-hydroxyazetidin-1-yl)ethan-1-one]
12 | 100 nM | 5840 nM | CC(C)(C)c1cc(C[C@H]2O[C@H](CO)[C@H](O)[C@H](n3cc(-c4cc(F)c(F)c(F)c4)nn3)[C@H]2OCC(=O)N2CCC(O)CC2)no1 [Example 2.41, 2-(((2R,3R,4S,5R,6R)-2-((5-(tert-butyl)isoxazol-3-yl)methyl)-5-hydroxy-6-(hydroxymethyl)-4-(4-(3,4,5-trifluorophenyl)-1H-1,2,3-triazol-1-yl)tetrahydro-2H-pyran-3-yl)oxy)-1-(4-hydroxypiperidin-1-yl)ethan-1-one]
13 | 180 nM | 3270 nM | CC(C)(C)c1cc(C[C@H]2O[C@H](CO)[C@H](O)[C@H](n3cc(-c4cc(F)c(F)c(F)c4)nn3)[C@H]2OCC(=O)N2CC[C@H](O)C2)no1 [Example 2.42, 2-(((2R,3R,4S,5R,6R)-2-((5-(tert-butyl)isoxazol-3-yl)methyl)-5-hydroxy-6-(hydroxymethyl)-4-(4-(3,4,5-trifluorophenyl)-1H-1,2,3-triazol-1-yl)tetrahydro-2H-pyran-3-yl)oxy)-1-((S)-3-hydroxypyrrolidin-1-yl)ethan-1-one]
14 | 47 nM | 550 nM | CC(C)(C)c1cc(C[C@H]2O[C@H](CO)[C@H](O)[C@H](n3cc(-c4ccc(F)c(F)c4F)nn3)[C@H]2OCC(=O)O)on1 [Example 2.43, 2-(((2R,3R,4S,5R,6R)-2-((3-(tert-butyl)isoxazol-5-yl)methyl)-5-hydroxy-6-(hydroxymethyl)-4-(4-(2,3,4-trifluorophenyl)-1H-1,2,3-triazol-1-yl)tetrahydro-2H-pyran-3-yl)oxy)acetic acid]
15 | 40 nM | 510 nM | CC1(c2cc(C[C@H]3O[C@H](CO)[C@H](O)[C@H](n4cc(-c5ccc(F)c(F)c5F)nn4)[C@H]3OCC(=O)O)on2)CC1 [Example 2.44, 2-(((2R,3R,4S,5R,6R)-5-hydroxy-6-(hydroxymethyl)-2-((3-(1-methylcyclopropyl)isoxazol-5-yl)methyl)-4-(4-(2,3,4-trifluorophenyl)-1H-1,2,3-triazol-1-yl)tetrahydro-2H-pyran-3-yl)oxy)acetic acid]
16 | 22 nM | 2420 nM | Cc1ccc(-c2cn([C@H]3[C@@H](O)[C@@H](CO)O[C@H](Cc4cc(C(C)(C)C)no4)[C@@H]3OC(N)=O)nn2)c(F)c1F [Example 2.45, (2R,3R,4S,5R,6R)-2-((3-(tert-butyl)isoxazol-5-yl)methyl)-4-(4-(2,3-difluoro-4-methylphenyl)-1H-1,2,3-triazol-1-yl)-5-hydroxy-6-(hydroxymethyl)tetrahydro-2H-pyran-3-yl carbamate]
17 | 29 nM | 890 nM | CC(C)(CO)c1cc(C[C@H]2O[C@H](CO)[C@H](O)[C@H](n3cc(-c4ccc(F)c(F)c4F)nn3)[C@H]2OCC(=O)O)on1 [Example 2.46, 2-(((2R,3R,4S,5R,6R)-5-hydroxy-2-((3-(1-hydroxy-2-methylpropan-2-yl)isoxazol-5-yl)methyl)-6-(hydroxymethyl)-4-(4-(2,3,4-trifluorophenyl)-1H-1,2,3-triazol-1-yl)tetrahydro-2H-pyran-3-yl)oxy)acetic acid]
18 | 230 nM | 4400 nM | C#Cc1ccc(-c2cn([C@H]3[C@@H](O)[C@@H](CO)O[C@H](Cc4cc(C(C)(C)C)on4)[C@@H]3OC)nn2)c(F)c1F [Example 2.47, (2R,3R,4S,5R,6R)-6-((5-(tert-butyl)isoxazol-3-yl)methyl)-4-(4-(4-ethynyl-2,3-difluorophenyl)-1H-1,2,3-triazol-1-yl)-2-(hydroxymethyl)-5-methoxytetrahydro-2H-pyran-3-ol]
19 | 98 nM | 1040 nM | CC(C)(C)c1cc(C[C@H]2O[C@H](CO)[C@H](O)[C@H](n3cc(-c4cc(F)c(F)c(F)c4)nn3)[C@H]2O)on1 [Example 2.48, (2R,3R,4R,5R,6R)-2-((3-(tert-butyl)isoxazol-5-yl)methyl)-6-(hydroxymethyl)-4-(4-(3,4,5-trifluorophenyl)-1H-1,2,3-triazol-1-yl)tetrahydro-2H-pyran-3,5-diol]

From patent publication US12319672B2, “Alpha-D-galactopyranoside derivatives” (Idorsia Pharmaceuticals Ltd, priority 2019, dated 2025)
